Assay [1] is filed under the species Mus musculus. Nature of the assay: Tested for tumor growth inhibition in mice. It counts as functional.
Assay [2] has as its system Mus musculus. Nature of the assay: In vivo antitumor activity was measured as the maximum dose tolerated by murine when administered subcutaneously. Format: functional.
In assay [3] the test system is Mus musculus. The assay is described as follows: In vivo antitumor activity was measured as the maximum dose tolerated by murine when administered intravenously. Format: functional.
In another assay the test system is P388. Nature of the assay: In vitro cytotoxicity was evaluated following 1 hour transient exposure of P388 mouse leukemia cells to the compound. Format: functional, cell-based. The following applies: P388, 1 h.
The next assay concerns the target DNA topoisomerase II (Homo sapiens, UniProt P11388+Q02880). The assay is described as follows: Compound was tested for topoisomerase II inhibition in purified HeLa cells by SDS/K+ precipitation method. Format: cell-based.

By T/C is commonly meant the ratio of treated to control. Broadly, the MTD is the highest dose tested that stayed within the study's limit of toxicity. Higher therefore signals better tolerability. A word on the IC50: it is the concentration that gives 50% inhibition. A low value points to greater potency. Broadly, the EC50 is the concentration at which the effect is half-maximal. A high value points to lower potency in that assay.

The structures appear in SMILES notation. Some results are limits rather than exact numbers.

`Cc1cc(-c2c(F)cc3c(=O)c(C(=O)O)cn(C4CC4)c3c2F)cc(C)n1` [WIN-57294] gave a T/C in the assay listed under Mus musculus [1] of 31%. In the assay with Mus musculus [2], this molecule yielded an MTD of 600 mg/kg.

Molecule `COc1cc([C@@H]2c3cc4c(cc3[C@@H](O[C@@H]3O[C@@H]5CO[C@@H](C)O[C@H]5[C@H](O)[C@H]3O)[C@H]3COC(=O)[C@H]23)OCO4)cc(OC)c1O` [ETOPOSIDE] returned an MTD in the assay with Mus musculus [3] of 96 mg/kg. Besides, the T/C in the assay filed under Mus musculus [1] came to 3%.

In the assay on Mus musculus [3], `Cc1cc(-c2c(F)cc3c4nn([C@H]5CC[C@@H](N(C)C)CC5)c(=O)c-4cn(C4CC4)c3c2F)cc(C)n1` returned an MTD of 63 mg/kg. The same molecule yielded a T/C in the assay filed under Mus musculus [1] of 5%. The molecule further had an IC50 with P388 of 0.067 µM. The molecule also registered an EC50 at DNA topoisomerase II of 1.7 µM.

In the assay filed under Mus musculus [1], `Cc1cc(-c2c(F)cc3c4nn(-c5ccccc5)c(=O)c-4cn(C4CC4)c3c2F)cc(C)n1` returned a T/C greater than 100%. The molecule further gave an IC50 in the assay with P388 of 1.8 µM. Besides, the MTD with Mus musculus [2] worked out at 635 mg/kg.

`Cc1cc(-c2c(F)cc3c4nn(CCN(C)C)c(=O)c-4cn(C4CC4)c3c2F)cc(C)n1` had an MTD with Mus musculus [3] of 34 mg/kg. This molecule also registered a T/C in the assay filed under Mus musculus [1] of 8%. In the assay with P388, this molecule had an IC50 of 0.26 µM. In addition, the 50% effective concentration (EC50) at DNA topoisomerase II was 2.6 µM.

Consider `Cc1cc(-c2c(F)cc3c4nn(CCCN(C)C)c(=O)c-4cn(C4CC4)c3c2F)cc(C)n1`, for which the MTD with Mus musculus [3] was determined as 64 mg/kg. Moreover, in the assay listed under Mus musculus [1], the T/C turned out to be 35%. Besides, inhibition in the assay on P388 was half-maximal at 0.16 µM (IC50). The EC50 at DNA topoisomerase II is 1.7 µM.

The molecule `Cc1cc(-c2c(F)cc3c4nn([C@H]5CC[C@H](N)CC5)c(=O)c-4cn(C4CC4)c3c2F)cc(C)n1` gave an MTD in the assay with Mus musculus [3] of 550 mg/kg. This molecule came in with a T/C in the assay listed under Mus musculus [1] of 42%. For the same molecule, inhibition with P388 was half-maximal at 1.5 µM (IC50). For the same molecule, the EC50 on DNA topoisomerase II came to 4.2 µM.

Molecule `Cc1cc(-c2c(F)cc3c4nn(CCO)c(=O)c-4cn(C4CC4)c3c2F)cc(C)n1` yielded an IC50 in the assay on P388 of 2 µM. Further, the EC50 at DNA topoisomerase II turned out to be 6.4 µM.

`Cc1cc(-c2c(F)cc3c(=O)ccn(C4CC4)c3c2F)cc(C)n1`: the T/C in the assay listed under Mus musculus [1] is greater than 100%. This molecule returned an IC50 in the assay on P388 of 15 µM. The MTD with Mus musculus [2] was determined as 1950 mg/kg.

For `CC(=O)N[C@H]1CC[C@@H](n2nc3c4cc(F)c(-c5cc(C)nc(C)c5)c(F)c4n(C4CC4)cc-3c2=O)CC1`, in the assay on P388, the midpoint of inhibition, the IC50, lay at 1.3 µM. This molecule had an EC50 at DNA topoisomerase II of 7.4 µM.

Turning to `Cc1cc(-c2c(F)cc3c4nn(C5CCC(C)CC5)c(=O)c-4cn(C4CC4)c3c2F)cc(C)n1` (centres undefined), the IC50 with P388 worked out at 1.4 µM. In addition, the EC50 on DNA topoisomerase II turned out to be 3.1 µM.

In turn, `Cc1cc(-c2c(F)cc3c4nn(C5CCOCC5)c(=O)c-4cn(C4CC4)c3c2F)cc(C)n1` showed an IC50 in the assay with P388 of 0.29 µM. Moreover, the EC50 on DNA topoisomerase II is 1.7 µM.

`Cc1cc(-c2c(F)cc3c4nn([C@H]5CC[C@@H](N)CC5)c(=O)c-4cn(C4CC4)c3c2F)cc(C)n1` came in with an MTD with Mus musculus [3] of 110 mg/kg. The T/C in the assay listed under Mus musculus [1] is 21%. The molecule further had an IC50 in the assay on P388 of 0.44 µM. On DNA topoisomerase II, this molecule showed an EC50 of 0.5 µM.

Molecule `Cc1cc(-c2c(F)cc3c4nn(C5CCCCC5)c(=O)c-4cn(C4CC4)c3c2F)cc(C)n1` registered an MTD with Mus musculus [3] of 140 mg/kg. The T/C in the assay filed under Mus musculus [1] was 18%. The IC50 in the assay on P388 was 0.68 µM. The molecule also returned an EC50 on DNA topoisomerase II of 0.9 µM.

`CC(=O)N[C@H]1CC[C@H](n2nc3c4cc(F)c(-c5cc(C)nc(C)c5)c(F)c4n(C4CC4)cc-3c2=O)CC1` registered an IC50 in the assay with P388 of 1.2 µM. The same molecule gave an EC50 at DNA topoisomerase II of 9.8 µM.

With `Cc1cc(-c2c(F)cc3c4nn(CCNCCO)c(=O)c-4cn(C4CC4)c3c2F)cc(C)n1`, the MTD with Mus musculus [3] turned out to be 1410 mg/kg. In addition, the T/C in the assay filed under Mus musculus [1] is 42%. Besides, the IC50 with P388 was 1.3 µM. In addition, on DNA topoisomerase II, the EC50 amounted to 3.3 µM.

Molecule `CCOC(=O)Cn1nc2c3cc(F)c(-c4cc(C)nc(C)c4)c(F)c3n(C3CC3)cc-2c1=O` had an IC50 in the assay on P388 of 5.1 µM. Also, the EC50 on DNA topoisomerase II came out at 6.1 µM.

Molecule `COc1cc(NS(C)(=O)=O)ccc1Nc1c2ccccc2nc2ccccc12` [AMSACRINE] had an MTD in the assay on Mus musculus [3] of 48 mg/kg. This molecule also had a T/C in the assay listed under Mus musculus [1] of 0%. In the assay with P388, this molecule gave an IC50 of 0.15 µM.

In the assay with P388, `Cc1cc(-c2c(F)cc3c4nn(C)c(=O)c-4cn(C4CC4)c3c2F)cc(C)n1` yielded an IC50 of 3.1 µM. Further, the EC50 on DNA topoisomerase II is 5.9 µM.

With `Cc1cc(-c2c(F)cc3c4n[nH]c(=O)c-4cn(C4CC4)c3c2F)cc(C)n1`, the T/C in the assay listed under Mus musculus [1] was greater than 100%. The IC50 in the assay with P388 is 7.9 µM. In the assay with Mus musculus [2], this molecule came in with an MTD of 2500 mg/kg. Besides, at DNA topoisomerase II, the EC50 came to 11 µM.

The molecule `Cc1cc(-c2c(F)cc3c4nn(C5CCN(C)CC5)c(=O)c-4cn(C4CC4)c3c2F)cc(C)n1` returned a maximum tolerated dose (MTD) in the assay on Mus musculus [3] of 128 mg/kg. For the same molecule, the T/C in the assay listed under Mus musculus [1] worked out at 24%. Half-maximal inhibition in the assay on P388 (IC50) required 0.094 µM. On DNA topoisomerase II, the EC50 was 3.2 µM.

The molecule `Cc1cc(-c2c(F)cc3c4nn([C@H]5CC[C@H](N(C)C)CC5)c(=O)c-4cn(C4CC4)c3c2F)cc(C)n1` showed an MTD in the assay with Mus musculus [3] of 390 mg/kg. The T/C in the assay listed under Mus musculus [1] was 2%. The same molecule had an IC50 with P388 of 0.26 µM. In addition, the EC50 at DNA topoisomerase II came out at 4.4 µM.

On to `Cc1cc(-c2c(F)cc3c4nn(CC(=O)O)c(=O)c-4cn(C4CC4)c3c2F)cc(C)n1`, for which the IC50 in the assay with P388 was greater than 200 µM. This molecule also had an EC50 at DNA topoisomerase II of 10 µM.

Source of the values: ChEMBL document CHEMBL1128835, “The antitumor activity of novel pyrazoloquinoline derivatives” (Bioorg Med Chem Lett, 1995).
